Data on one sequence can be found in ChEMBL document CHEMBL2073745, “Disruption of the mouse mdr1a P-glycoprotein gene leads to a deficiency in the blood-brain barrier and to increased sensitivity to drugs” (Cell, 1994).

This data set deals with ATP-dependent translocase ABCB1 (Mus musculus, UniProt P21447). In words: TP_TRANSPORTER: increase in plasma concentration in mdr1a(-/-) mouse. The class given is functional, organism-based. To be noted: in vivo.
ATP-dependent translocase ABCB1, sequence (P21447 whole entry): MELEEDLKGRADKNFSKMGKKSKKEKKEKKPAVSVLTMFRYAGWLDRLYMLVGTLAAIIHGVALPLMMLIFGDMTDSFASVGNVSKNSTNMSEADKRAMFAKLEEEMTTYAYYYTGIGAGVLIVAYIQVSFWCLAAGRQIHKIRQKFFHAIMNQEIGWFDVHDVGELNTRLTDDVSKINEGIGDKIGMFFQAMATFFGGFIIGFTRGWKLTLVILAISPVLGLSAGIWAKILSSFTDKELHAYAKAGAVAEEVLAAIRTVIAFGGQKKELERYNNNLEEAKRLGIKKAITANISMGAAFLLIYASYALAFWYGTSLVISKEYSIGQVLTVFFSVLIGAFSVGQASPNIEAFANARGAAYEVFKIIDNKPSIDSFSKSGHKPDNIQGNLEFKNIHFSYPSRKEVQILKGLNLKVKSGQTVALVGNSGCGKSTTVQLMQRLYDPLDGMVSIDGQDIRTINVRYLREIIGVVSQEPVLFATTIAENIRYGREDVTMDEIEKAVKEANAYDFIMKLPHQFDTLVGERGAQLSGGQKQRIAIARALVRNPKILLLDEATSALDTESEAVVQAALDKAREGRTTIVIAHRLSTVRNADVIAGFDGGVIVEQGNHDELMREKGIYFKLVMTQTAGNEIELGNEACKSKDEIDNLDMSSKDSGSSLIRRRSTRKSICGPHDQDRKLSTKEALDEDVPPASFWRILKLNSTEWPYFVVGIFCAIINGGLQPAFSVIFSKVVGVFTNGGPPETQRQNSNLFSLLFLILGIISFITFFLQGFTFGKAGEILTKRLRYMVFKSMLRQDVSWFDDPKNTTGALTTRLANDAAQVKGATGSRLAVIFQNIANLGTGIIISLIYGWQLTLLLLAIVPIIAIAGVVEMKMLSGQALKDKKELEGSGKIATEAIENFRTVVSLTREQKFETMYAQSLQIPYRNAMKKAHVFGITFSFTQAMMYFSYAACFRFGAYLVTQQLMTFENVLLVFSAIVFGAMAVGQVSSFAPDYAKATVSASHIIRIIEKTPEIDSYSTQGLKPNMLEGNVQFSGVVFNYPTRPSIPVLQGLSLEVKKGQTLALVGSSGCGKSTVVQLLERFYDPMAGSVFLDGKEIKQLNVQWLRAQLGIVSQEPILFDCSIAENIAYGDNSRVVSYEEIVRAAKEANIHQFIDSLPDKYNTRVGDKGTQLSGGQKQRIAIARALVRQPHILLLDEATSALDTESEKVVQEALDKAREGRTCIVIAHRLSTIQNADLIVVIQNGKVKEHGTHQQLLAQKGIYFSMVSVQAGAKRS

In the case of IVERMECTIN, the Activity result is “substrate [+]”.
